Experimental findings from patent publication US8952042B2, “FXR (NR1H4) binding and activity modulating compounds” (Phenex Pharmaceuticals AG, priority 2009, dated 2015) are described below.

The target of assay [1] is T1, human FXR alpha ligand binding domain (Homo sapiens, UniProt Q96RI1).
T1 construct: made in house; host or cells: E. coli BL21(DE3), vector pDEST15
T1 sequence (Q96RI1 187-472 isoform Q96RI1-2): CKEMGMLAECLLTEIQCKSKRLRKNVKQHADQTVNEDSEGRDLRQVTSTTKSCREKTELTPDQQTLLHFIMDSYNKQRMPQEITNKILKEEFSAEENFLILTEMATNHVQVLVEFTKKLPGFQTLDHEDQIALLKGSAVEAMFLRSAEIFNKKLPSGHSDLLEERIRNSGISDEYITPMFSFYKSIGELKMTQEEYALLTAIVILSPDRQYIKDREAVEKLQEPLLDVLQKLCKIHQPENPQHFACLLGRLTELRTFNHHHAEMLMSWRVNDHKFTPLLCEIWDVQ
Description: FRET activity assay (ligand mediated cofactor peptide interaction, LANCE). Type of assay: biochemical. Conditions: potency range. As for the experimental part: Determination of a ligand mediated cofactor peptide interaction to quantify ligand binding to the nuclear receptor FXR was performed as follows: Preparation of human FXR alpha ligand binding domain: The human FXRalpha LBD was expressed in E. coli strain BL21(DE3) as an N-terminally GST tagged fusion protein. The DNA encoding the FXR ligand binding domain was cloned into vector pDEST15 (Invitrogen). Expression was under control of an IPTG inducible T7 promoter. The amino acid boundaries of the ligand binding domain were amino acids 187-472 of Database entry NM_005123 (RefSeq). Expression and purification of the FXR-LBD: An overnight preculture of a transformed E. coli strain was diluted 1:20 in LB-Ampicillin medium and grown at 30° C. to an optical density of OD600=0.4-0.6. Gene expression was then induced by addition of 0.5 mM IPTG. Cells were incubated an additional 6 h at 30° C., 180 rpm. Cells were collected by centrifugation (7000×g, 7 min, room temperature). Per liter of original cell culture, cells were resuspended in 10 mL lysis buffer (50 mM Glucose, 50 mM Tris pH 7.9, 1 mM EDTA and 4 mg/mL lysozyme) and left on ice for 30 min. Cells were then subjected to sonication and cell debris removed via centrifugation (22000×g, 30 min, 4° C.). Per 10 mL of supernatant 0.5 mL prewashed Glutathione 4B sepharose slurry (Qiagen) was added and the suspension kept slowly rotating for 1 h at 4° C. Glutathione 4B sepharose beads were pelleted by centrifugation (2000×g, 15 sec, 4° C.) and washed twice in wash buffer (25 mM Tris, 50 mM KCl, 4 mM MgCl2 and 1M NaCl). The pellet was resuspended in 3 mL elution buffer per liter of original culture (elution buffer: 20 mM Tris, 60 mM KCl, 5 mM MgCl2 and 80 mM glutathione added immediately prior to use as powder). The suspension was left rotating for 15 min at 4° C., the beads pelleted and eluted again with half the volume of elution buffer than the first time. The eluates were pooled and dialysed overnight in 20 mM Hepes buffer (pH 7.5) containing 60 mM KCl, 5 mM MgCl2 as well as 1 mM dithiothreitol and 10% (v/v) glycerol. The protein was analysed by SDS-Page.
The method measures the ability of putative ligands to modulate the interaction between the purified bacterial expressed FXR ligand binding domain (LBD) and a synthetic biotinylated peptide based on residues 676-700 of SRC-1 (LCD2, 676-700). […] The ligand binding domain (LBD) of FXR was expressed as fusion protein with GST in BL-21 cells using the vector pDEST15. Cells were lysed by sonication, and the fusion proteins purified over glutathione sepharose (Pharmacia) according to the manufacturers instructions. For screening of compounds for their influence on the FXR-peptide interaction, the Perkin Elmer LANCE technology was applied. This method relies on the binding dependent energy transfer from a donor to an acceptor fluorophor attached to the binding partner of interest. For ease of handling and reduction of background from compound fluorescence LANCE technology makes use of generic fluorophore labels and time resolved detection Assays were done in a final volume of 25 μL in a 384 well plate, in a Tris-based buffer (20 mM Tris-HCl pH 7.5; 60 mM KCl, 5 mM MgCl2; 35 ng/μL BSA), containing 20-60 ng/well recombinantly expressed FXR-LBD fused to GST, 200-600 nM N-terminally biotinylated peptide, representing SRC1 aminoacids 676-700, 200 ng/well Streptavidin-xIAPC conjugate (Prozyme) and 6-10 ng/well Eu W1024—antiGST (Perkin Elmer). DMSO content of the samples was kept at 1%. After generation of the assay mix and diluting the potentially FXR modulating ligands, the assay was equilibrated for one hour in the dark at room temperature in FIA-plates black 384 well (Greiner). The LANCE signal was detected by a Perkin Elmer VICTOR2V™ Multilabel Counter. The results were visualized by plotting the ratio between the emitted light at 665 and 615 nm.
For orientation: In TR-FRET formats the signal depends on donor and acceptor labels being close together.

For assay [2], the target named is T2, FXR ligand binding domain (Homo sapiens, UniProt Q96RI1).
T2 construct: expressed in transfected cells; host or cells: HEK293 cells (DSMZ), transient transfection of pCMV-BD-FXR-LBD
T2 sequence (Q96RI1 187-472 isoform Q96RI1-2): T1 sequence (Q96RI1 187-472 isoform Q96RI1-2)
The experiment in a line: Mammalian One Hybrid (M1H) Gal4 reporter assay in HEK293 cells. Type of assay: cell-based. Conditions: potency range. As for the experimental part:
Determination of a ligand mediated Gal4 promoter driven transactivation to quantify ligand binding mediated activation of FXR was performed as follows: The cDNA part encoding the FXR ligand binding domain was cloned into vector pCMV-BD (Stratagene) as a fusion to the yeast GAL4 DNA binding domain under the control of the CMV promoter. The amino acid boundaries of the ligand binding domain were amino acids 187-472 of Database entry NM_005123 (RefSeq). The plasmid pFR-Luc (Stratagene) was used as the reporter plasmid, containing a synthetic promoter with five tandem repeats of the yeast GAL4 binding sites, driving the expression of the Photinus pyralis (American firefly) luciferase gene as the reporter gene. In order to improve experimental accuracy the plasmid pRL-CMV (Promega) was cotransfected. pRL-CMV contains the constitutive CMV promoter, controlling the expression of the Renilla reniformis luciferase. All Gal4 reporter gene assays were done in HEK293 cells (obtained from DSMZ, Braunschweig, Germany) grown in MEM with L-Glutamine and Earle's BSS supplemented with 10% fetal bovine serum, 0.1 mM nonessential amino acids, 1 mM sodium pyruvate, and 100 units Penicillin/[…] per mL at 37° C. in 5% CO2. Medium and supplements were obtained from Invitrogen. For the assay, […] were plated per well in 96 well plates in 100 μL per well MEM without Phenol Red and L-Glutamine and with Earle's BSS supplemented with 10% charcoal/dextran treated FBS (HyClone, South Logan, Utah), 0.1 mM nonessential amino acids, 2 mM glutamine, 1 mM sodium pyruvate, and 100 units Penicillin/[…] per mL, incubated at 37° C. in 5% CO2. The following day the cells were >90% confluence. Medium was removed and cells were transiently transfected using 20 μL per well of a OptiMEM—polyethylene-imine-based transfection-reagent (OptiMEM, Invitrogen; Polyethyleneimine, Aldrich Cat No. 40, 827-7) including the three plasmids described above. MEM with the same composition as used for plating cells was added 2-4 h after addition of transfection mixture. Then compound stocks, prediluted in MEM were added (final vehicle concentration not exceeding 0.1%). Cells were incubated for additional 16 h before firefly and renilla luciferase activities were measured sequentially in the same cell extract using a Dual-Light-Luciferase-Assay system (Dyer et al., Anal. Biochem. 2000, 282, 158-161). All experiments were done in triplicates.

Regarding `Cc1cc(C2CC2c2ccc(OCc3c(-c4c(Cl)cccc4Cl)noc3C3CC3)cc2Cl)cc(C)c1C(=O)O` (centres unmarked) [Example 23, 4-(2-(2-chloro-4-((5-cyclopropyl-3-(2,6-dichlorophenyl)isoxazol-4-yl)methoxy)phenyl)cyclopropyl)-2,6-dimethylbenzoic acid], the EC50 (usually the concentration that produces a half-maximal response) in assay [1] was 10 to 100 nM; in assay [2] it was below 10 nM.
As for `O=C(NCCS(=O)(=O)O)c1ccc(C2CC2c2ccc(OCc3c(-c4c(Cl)cccc4Cl)noc3C3CC3)cc2Cl)cc1` (centres unmarked) [Example 15, 2-(4-(2-(2-chloro-4-((5-cyclopropyl-3-(2,6-dichlorophenyl)isoxazol-4-yl)methoxy)phenyl)cyclopropyl)benzamido)ethanesulfonic acid], the EC50 in assay [1] was 10 to 100 nM; in assay [2], above 100 nM.
With `Clc1cc(OCc2c(-c3c(Cl)cccc3Cl)noc2C2CC2)ccc1C1CC1c1ccc(-c2nnn[nH]2)nc1` (centres unmarked) [Example 7, 4-((4-(2-(6-(1H-tetrazol-5-yl)pyridin-3-yl)cyclopropyl)-3-chlorophenoxy)methyl)-5-cyclopropyl-3-(2,6-dichlorophenyl)isoxazole], the EC50 in assay [1] and in assay [2] was 10 to 100 nM throughout.
Turning to `O=C(O)c1ccc(C2CC2c2ccc(OCc3c(-c4c(Cl)cccc4Cl)noc3C3CC3)cc2Cl)cn1` (centres unmarked) [Example 8, 5-(2-(2-chloro-4-((5-cyclopropyl-3-(2,6-dichlorophenyl)isoxazol-4-yl)methoxy)-phenyl)cyclopropyl)picolinic acid], the EC50 in assay [1] and in assay [2] was 10 to 100 nM in each case.
On to `O=C(O)c1cccc(C2CC2c2ccc(OCc3c(-c4c(Cl)cccc4Cl)noc3C3CC3)cc2Cl)c1` (single isomer, unassigned; (-)) [Example 5a, (−)-3-(2-(2-chloro-4-((5-cyclopropyl-3-(2,6-dichlorophenyl)isoxazol-4-yl)methoxy)phenyl)cyclopropyl)benzoic acid], for which the EC50 in assay [1] was below 10 nM; in assay [2], 10 to 100 nM.
For `Cn1nc(C(=O)O)c2ccc(C3CC3c3ccc(OCc4c(-c5c(Cl)cccc5Cl)noc4C4CC4)cc3Cl)cc21` (single isomer, unassigned; (+)) [Example 13a, (+)-6-(2-(2-chloro-4-((5-cyclopropyl-3-(2,6-dichlorophenyl)isoxazol-4-yl)methoxy)phenyl)cyclopropyl)-1-methyl-1H-indazole-3-carboxylic acid], the EC50 in assay [1] and in assay [2] was 10 to 100 nM each time.
Regarding `O=C(O)c1ccc(C2CC2c2ccc(OCc3c(-c4c(Cl)cccc4Cl)noc3C3CC3)cc2Cl)cc1` (single isomer, unassigned; (+)) [Example 12b, (+)-4-(2-(2-chloro-4-((5-cyclopropyl-3-(2,6-dichlorophenyl)isoxazol-4-yl)methoxy)phenyl)cyclopropyl)benzoic acid], the EC50 in assay [1] and in assay [2] was above 100 nM each time.
Take `Cn1nc(C(=O)O)c2ccc(C3CC3c3ccc(OCc4c(-c5c(Cl)cccc5Cl)noc4C4CC4)cc3Cl)cc21` (single isomer, unassigned; (-)) [Example 13b, (−)-6-(2-(2-chloro-4-((5-cyclopropyl-3-(2,6-dichlorophenyl)isoxazol-4-yl)methoxy)phenyl)cyclopropyl)-1-methyl-1H-indazole-3-carboxylic acid]: the EC50 in assay [1] and in assay [2] was below 10 nM throughout.
On to `O=C(O)c1cccc(C2CC2c2ccc(OCc3c(-c4c(Cl)c[n+]([O-])cc4Cl)noc3C3CC3)cc2Cl)c1` (centres unmarked) [Example 2, 4-(4-((4-(2-(3-carboxyphenyl)cyclopropyl)-3-chlorophenoxy)methyl)-5-cyclopropylisoxazol-3-yl)-3,5-dichloropyridine 1-oxide], for which the EC50 in assay [1] and in assay [2] was 10 to 100 nM throughout.
As to `CC(C)c1nnn(-c2c(Cl)cccc2Cl)c1COc1ccc(C2CC2c2cccc(C(=O)O)c2)c(Cl)c1` (centres unmarked) [Example 3, 3-(2-(2-chloro-4-((1-(2,6-dichlorophenyl)-4-isopropyl-1H-1,2,3-triazol-5-yl)methoxy)phenyl)cyclopropyl)benzoic acid], the EC50 in assay [1] and in assay [2] was 10 to 100 nM in each case.
Take `O=C(O)c1cccc(C2CC2c2ccc(OCc3c(-c4c(Cl)cncc4Cl)noc3C3CC3)cc2Cl)c1` (centres unmarked) [Example 1, 3-(2-(2-chloro-4-((5-cyclopropyl-3-(3,5-dichloropyridin-4-yl)isoxazol-4-yl)methoxy)phenyl)cyclopropyl)-benzoic acid]: the EC50 in assay [1] and in assay [2] was 10 to 100 nM each time.
Take `O=C(O)c1cccc(C2CC2c2ccc(OCc3c(-c4c(Cl)cccc4Cl)noc3C3CC3)cc2Cl)c1` (single isomer, unassigned; (+)) [Example 5b, (+)-3-(2-(2-chloro-4-((5-cyclopropyl-3-(2,6-dichlorophenyl)isoxazol-4-yl)methoxy)phenyl)cyclopropyl)benzoic acid]: the EC50 in assay [1] and in assay [2] was above 100 nM each time.
For the molecule `O=C(O)c1ccc(C2CC2c2ccc(OCc3c(-c4ccccc4OC(F)(F)F)noc3C3CC3)cc2Cl)cc1` (centres unmarked) [Example 24], the EC50 in assay [1] and in assay [2] was above 100 nM throughout.
